Measured values reported in ChEMBL document CHEMBL5465560, “Selectivity Literature for EUbOPEN Chemogenomic Library” (2024).

Key:
[1] = test system: Receptor-type tyrosine-protein kinase FLT3 (Homo sapiens), P36888 [UNDEFINED MUTATION]; test: Selectivity interaction (KinomeScan (DiscoverX)) EUB0001079a FLT3; details: at 1 µM
Focal adhesion kinase 1 = Focal adhesion kinase 1 (Homo sapiens, UniProt Q05397); details: at 10 µM
[2] = target: Serine/threonine-protein kinase N2 (Homo sapiens, UniProt Q16513); details: at 10 µM
Serine/threonine-protein kinase N2, sequence (Q16513 whole entry, looked up): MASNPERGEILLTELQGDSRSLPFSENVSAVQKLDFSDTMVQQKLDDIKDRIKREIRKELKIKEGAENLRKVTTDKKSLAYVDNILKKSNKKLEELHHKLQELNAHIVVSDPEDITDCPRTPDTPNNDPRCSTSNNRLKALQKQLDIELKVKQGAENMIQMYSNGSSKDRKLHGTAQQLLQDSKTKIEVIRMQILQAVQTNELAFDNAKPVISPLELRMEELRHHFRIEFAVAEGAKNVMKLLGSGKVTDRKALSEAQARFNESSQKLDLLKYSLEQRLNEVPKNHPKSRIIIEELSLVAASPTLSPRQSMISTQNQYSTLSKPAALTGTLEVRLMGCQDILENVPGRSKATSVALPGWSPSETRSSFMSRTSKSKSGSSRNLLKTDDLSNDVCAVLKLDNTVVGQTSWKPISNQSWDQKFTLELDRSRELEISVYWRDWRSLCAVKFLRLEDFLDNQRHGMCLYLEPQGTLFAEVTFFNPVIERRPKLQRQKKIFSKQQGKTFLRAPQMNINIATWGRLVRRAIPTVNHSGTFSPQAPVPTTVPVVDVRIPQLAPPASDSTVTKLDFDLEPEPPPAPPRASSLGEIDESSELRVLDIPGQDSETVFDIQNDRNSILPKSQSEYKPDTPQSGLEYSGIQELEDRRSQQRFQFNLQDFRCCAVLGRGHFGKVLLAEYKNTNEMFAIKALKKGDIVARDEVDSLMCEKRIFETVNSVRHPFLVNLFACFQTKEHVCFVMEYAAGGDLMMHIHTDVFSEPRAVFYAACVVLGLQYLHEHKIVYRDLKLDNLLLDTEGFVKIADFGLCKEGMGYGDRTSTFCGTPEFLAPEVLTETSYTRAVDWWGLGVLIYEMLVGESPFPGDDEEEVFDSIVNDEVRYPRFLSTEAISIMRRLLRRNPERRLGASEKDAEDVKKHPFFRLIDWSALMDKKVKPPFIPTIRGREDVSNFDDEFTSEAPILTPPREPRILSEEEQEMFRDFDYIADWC

[3] = target: T1, Tyrosine-protein kinase JAK3 (Homo sapiens) (UniProt P52333); test: Selectivity interaction (ProQinase) EUB0000171b JAK3
T1 sequence (whole entry): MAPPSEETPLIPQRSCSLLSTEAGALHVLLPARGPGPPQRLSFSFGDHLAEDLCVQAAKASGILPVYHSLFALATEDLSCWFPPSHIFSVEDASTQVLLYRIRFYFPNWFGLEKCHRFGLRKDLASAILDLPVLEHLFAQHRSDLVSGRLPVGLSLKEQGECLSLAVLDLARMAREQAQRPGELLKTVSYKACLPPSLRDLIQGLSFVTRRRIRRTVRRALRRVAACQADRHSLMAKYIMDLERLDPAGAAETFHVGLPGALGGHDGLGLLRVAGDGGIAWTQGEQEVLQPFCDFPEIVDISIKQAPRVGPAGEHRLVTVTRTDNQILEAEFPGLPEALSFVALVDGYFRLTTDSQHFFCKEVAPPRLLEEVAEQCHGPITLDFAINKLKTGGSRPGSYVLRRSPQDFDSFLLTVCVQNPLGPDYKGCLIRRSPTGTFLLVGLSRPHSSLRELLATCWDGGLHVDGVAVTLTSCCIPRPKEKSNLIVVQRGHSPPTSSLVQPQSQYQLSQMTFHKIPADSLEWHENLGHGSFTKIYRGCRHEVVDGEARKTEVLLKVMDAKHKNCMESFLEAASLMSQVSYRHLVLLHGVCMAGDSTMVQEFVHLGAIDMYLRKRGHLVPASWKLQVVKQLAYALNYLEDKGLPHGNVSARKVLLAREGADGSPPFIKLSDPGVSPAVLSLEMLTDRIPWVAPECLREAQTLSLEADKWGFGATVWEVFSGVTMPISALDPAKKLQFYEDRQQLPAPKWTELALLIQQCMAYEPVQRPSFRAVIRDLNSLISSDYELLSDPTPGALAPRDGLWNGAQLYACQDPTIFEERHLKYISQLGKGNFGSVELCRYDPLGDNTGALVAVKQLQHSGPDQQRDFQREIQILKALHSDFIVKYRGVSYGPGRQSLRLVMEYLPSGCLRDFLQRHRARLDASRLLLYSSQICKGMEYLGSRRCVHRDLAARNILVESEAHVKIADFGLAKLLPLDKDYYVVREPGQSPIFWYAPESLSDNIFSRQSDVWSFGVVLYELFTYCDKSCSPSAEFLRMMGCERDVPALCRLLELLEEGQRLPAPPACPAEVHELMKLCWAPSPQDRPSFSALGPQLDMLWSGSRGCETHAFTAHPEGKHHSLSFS

Aurora kinase B = Aurora kinase B (Homo sapiens, UniProt Q96GD4); test: Selectivity interaction (Panel of kinases, GPCRs, ion channels and transporters (enzymatic assay)) EUB0000223bCl AURKB
Aurora kinase B, sequence (Q96GD4 whole entry): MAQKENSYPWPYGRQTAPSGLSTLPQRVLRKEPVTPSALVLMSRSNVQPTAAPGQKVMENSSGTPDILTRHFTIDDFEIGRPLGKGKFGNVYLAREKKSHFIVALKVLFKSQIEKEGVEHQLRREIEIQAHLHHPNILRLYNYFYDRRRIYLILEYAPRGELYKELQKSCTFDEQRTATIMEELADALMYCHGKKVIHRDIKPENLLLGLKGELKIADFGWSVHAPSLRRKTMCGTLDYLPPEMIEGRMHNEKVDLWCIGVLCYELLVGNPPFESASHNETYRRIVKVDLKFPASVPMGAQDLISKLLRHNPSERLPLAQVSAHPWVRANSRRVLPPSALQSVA

[4] = target: Mitogen-activated protein kinase kinase kinase 1 (Homo sapiens, UniProt Q13233); test: Selectivity interaction (ActivX KiNativ screen (ex vivo kinase selectivity in human PBMCs)) EUB0001619a MAP3K1; assay type: cell-based; details: PBMC, at 1 µM
Mitogen-activated protein kinase kinase kinase 1, sequence (Q13233 whole entry): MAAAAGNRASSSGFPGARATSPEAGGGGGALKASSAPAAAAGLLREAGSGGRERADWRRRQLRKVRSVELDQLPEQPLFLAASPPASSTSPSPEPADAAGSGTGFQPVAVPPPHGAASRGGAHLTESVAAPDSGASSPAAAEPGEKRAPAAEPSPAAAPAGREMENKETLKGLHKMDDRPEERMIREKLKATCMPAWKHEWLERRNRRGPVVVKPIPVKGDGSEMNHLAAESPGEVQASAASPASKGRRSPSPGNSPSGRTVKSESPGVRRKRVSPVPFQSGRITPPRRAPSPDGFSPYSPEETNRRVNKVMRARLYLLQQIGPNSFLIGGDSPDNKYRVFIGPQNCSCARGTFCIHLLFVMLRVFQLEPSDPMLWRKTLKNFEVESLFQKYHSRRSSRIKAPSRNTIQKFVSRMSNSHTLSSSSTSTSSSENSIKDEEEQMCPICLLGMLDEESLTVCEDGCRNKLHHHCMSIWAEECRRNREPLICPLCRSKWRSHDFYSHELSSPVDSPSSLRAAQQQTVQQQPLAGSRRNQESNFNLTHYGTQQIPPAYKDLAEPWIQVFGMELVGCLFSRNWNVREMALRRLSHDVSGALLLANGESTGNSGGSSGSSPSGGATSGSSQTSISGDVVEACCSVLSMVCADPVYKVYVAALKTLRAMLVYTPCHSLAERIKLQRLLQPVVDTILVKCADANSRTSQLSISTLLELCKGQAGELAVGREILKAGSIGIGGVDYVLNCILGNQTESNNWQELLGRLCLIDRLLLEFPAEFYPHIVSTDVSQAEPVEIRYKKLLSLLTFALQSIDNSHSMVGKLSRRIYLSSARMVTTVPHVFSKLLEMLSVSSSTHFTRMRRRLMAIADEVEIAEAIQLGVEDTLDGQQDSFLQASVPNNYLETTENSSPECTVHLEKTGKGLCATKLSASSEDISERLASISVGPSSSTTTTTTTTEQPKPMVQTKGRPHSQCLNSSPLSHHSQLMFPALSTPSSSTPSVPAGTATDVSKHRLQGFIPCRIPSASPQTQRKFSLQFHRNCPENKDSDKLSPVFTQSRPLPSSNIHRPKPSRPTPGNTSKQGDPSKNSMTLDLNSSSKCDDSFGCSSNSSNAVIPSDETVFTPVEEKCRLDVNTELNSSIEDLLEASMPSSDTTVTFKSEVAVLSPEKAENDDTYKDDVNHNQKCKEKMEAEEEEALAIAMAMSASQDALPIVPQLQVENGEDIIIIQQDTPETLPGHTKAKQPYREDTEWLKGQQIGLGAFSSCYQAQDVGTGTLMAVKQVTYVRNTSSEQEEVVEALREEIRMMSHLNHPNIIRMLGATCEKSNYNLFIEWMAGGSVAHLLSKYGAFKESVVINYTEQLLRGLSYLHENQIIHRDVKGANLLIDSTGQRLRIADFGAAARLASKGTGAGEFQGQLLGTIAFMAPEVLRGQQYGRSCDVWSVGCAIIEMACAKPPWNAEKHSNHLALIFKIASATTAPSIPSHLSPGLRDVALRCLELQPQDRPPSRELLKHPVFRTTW

[5] = target: T2, Serine/threonine-protein kinase TAO1 (Homo sapiens) (UniProt Q7L7X3); test: Selectivity interaction (KinomeScan (DiscoverX)) EUB0000092b TAOK1; details: at 10 µM
T2 sequence (whole entry): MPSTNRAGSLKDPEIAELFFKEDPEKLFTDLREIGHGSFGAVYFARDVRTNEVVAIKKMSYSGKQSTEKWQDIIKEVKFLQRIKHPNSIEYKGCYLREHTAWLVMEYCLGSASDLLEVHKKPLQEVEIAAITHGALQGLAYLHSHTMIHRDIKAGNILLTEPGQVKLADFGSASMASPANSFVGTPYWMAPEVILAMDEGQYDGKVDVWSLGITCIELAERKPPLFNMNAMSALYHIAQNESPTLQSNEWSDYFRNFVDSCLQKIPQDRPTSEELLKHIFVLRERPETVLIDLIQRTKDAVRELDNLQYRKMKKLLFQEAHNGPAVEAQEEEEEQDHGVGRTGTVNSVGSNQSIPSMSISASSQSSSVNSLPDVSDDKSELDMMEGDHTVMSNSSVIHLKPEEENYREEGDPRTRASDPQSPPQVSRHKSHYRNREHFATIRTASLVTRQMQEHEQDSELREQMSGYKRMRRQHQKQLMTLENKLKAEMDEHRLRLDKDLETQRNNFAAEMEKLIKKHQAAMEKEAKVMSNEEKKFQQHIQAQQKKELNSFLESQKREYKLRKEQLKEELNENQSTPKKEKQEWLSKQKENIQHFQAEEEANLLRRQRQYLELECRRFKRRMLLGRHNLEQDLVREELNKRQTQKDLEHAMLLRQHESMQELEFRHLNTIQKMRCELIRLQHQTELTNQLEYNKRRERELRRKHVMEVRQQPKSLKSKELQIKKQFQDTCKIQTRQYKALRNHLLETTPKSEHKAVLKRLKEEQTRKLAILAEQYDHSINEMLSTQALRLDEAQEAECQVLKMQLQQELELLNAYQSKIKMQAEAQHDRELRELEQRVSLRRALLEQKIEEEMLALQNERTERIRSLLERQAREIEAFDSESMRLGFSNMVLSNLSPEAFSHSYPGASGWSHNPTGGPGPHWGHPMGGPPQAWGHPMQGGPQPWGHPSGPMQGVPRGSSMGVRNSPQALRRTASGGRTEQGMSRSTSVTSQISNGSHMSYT

Receptor-type tyrosine-protein kinase FLT3 (Homo sapiens), P36888 [UNDEFINED MUTATION], sequence (P36888 whole entry, looked up, change not shown): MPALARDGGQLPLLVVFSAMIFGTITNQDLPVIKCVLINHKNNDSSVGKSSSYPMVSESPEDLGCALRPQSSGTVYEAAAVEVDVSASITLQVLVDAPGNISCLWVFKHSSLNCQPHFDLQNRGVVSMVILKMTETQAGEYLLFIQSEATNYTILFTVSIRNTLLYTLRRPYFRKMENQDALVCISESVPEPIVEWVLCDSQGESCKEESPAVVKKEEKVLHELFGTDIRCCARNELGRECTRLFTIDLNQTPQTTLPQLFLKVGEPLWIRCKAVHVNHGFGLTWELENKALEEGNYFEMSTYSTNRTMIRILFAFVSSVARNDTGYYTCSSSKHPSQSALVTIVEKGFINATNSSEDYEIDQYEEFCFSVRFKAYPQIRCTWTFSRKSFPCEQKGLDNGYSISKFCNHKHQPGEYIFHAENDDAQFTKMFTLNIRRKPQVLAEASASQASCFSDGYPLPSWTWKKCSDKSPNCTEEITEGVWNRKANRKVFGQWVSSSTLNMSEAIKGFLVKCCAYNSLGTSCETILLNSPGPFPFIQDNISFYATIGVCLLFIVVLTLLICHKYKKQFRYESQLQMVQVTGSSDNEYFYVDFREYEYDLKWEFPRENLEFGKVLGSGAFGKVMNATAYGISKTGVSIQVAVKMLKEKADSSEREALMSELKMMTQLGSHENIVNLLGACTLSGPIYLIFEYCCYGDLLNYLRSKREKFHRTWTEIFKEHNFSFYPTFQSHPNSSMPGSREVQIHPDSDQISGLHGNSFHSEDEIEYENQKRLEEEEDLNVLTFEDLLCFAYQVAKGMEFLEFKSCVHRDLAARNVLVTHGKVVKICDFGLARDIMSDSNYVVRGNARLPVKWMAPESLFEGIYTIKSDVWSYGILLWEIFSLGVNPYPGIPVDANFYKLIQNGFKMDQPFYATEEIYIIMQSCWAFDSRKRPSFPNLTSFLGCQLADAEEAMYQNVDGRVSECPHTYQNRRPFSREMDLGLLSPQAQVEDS
Focal adhesion kinase 1, sequence (Q05397 2-1052 limits assumed): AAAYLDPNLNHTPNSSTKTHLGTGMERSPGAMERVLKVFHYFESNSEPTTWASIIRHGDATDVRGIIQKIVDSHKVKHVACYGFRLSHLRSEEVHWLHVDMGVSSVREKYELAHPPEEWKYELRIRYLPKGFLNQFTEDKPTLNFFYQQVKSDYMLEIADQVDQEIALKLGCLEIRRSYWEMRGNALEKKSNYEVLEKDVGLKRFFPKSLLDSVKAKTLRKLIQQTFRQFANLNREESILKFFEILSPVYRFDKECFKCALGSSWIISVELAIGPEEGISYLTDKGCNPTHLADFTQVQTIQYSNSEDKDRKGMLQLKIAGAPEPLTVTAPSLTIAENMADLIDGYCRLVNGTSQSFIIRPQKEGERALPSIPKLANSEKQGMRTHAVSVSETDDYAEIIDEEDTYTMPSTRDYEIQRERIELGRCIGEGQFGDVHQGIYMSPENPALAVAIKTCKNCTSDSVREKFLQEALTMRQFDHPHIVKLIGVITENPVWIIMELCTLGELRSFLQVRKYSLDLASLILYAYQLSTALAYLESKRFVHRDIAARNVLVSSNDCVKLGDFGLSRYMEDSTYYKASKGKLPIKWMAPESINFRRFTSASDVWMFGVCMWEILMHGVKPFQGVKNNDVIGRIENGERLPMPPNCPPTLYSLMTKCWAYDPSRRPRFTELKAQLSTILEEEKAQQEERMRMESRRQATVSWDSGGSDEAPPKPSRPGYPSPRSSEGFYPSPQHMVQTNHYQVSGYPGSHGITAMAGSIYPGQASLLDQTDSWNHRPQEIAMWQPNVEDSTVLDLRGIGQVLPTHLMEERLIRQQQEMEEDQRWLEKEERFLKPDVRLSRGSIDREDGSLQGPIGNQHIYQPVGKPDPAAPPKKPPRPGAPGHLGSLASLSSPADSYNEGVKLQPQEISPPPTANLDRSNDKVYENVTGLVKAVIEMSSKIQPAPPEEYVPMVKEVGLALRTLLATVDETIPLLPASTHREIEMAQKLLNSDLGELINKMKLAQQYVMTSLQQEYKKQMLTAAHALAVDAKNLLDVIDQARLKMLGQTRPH

**Q.** Which % of control [1] does the source give for Nc1cnc(N2CCc3cc(S(=O)(=O)Nc4c(F)cc(Cl)cc4F)cc(N4CCCC4=O)c32)nc1 [TP-020n] here?
**A.** 100%

**Q.** Which % of control (Focal adhesion kinase 1) does the source give for Cc1cc([C@@H](C)Nc2ccccc2C(=O)O)c2nc(N3CCOCC3)cc(=O)n2c1 [AZD-6482] here?
**A.** 88%

**Q.** What about the % of control [2] of the same compound?
**A.** 98%

**Q.** With C=CC(=O)Nc1cccc(C(=O)Nc2ccc(Nc3cc(-c4[nH]c(SC)nc4C)ccn3)cc2)c1 as the compound, how does the % of control ([3]; at 1 µM) read?
**A.** 79%

**Q.** What about the % of control ([3]; at 5 µM) of the same compound?
**A.** 54%

**Q.** How did the pXC50 (Aurora kinase B) turn out when COc1cc(C(=O)N2CC[C@@H](O)[C@@H](N)C2)cc2nc(-c3cc4ccccc4n3CC3CC3)n(C)c12 was run?
**A.** < 4.5 M

**Q.** For N#Cc1cccc(-c2c[nH]c3ncnc(N4CCOCC4)c23)c1, which % of inhibition [4] is on record?
**A.** 45%

**Q.** Which % of control [5] does the source give for CCC(=O)N1CCN(c2ccc(-n3c(=O)ccc4cnc5ccc(-c6cnc7ccccc7c6)cc5c43)cc2C(F)(F)F)CC1 here?
**A.** 58%
